Laboratory results published in patent US9765105B2, “Macrolide compound” (Pulike Biological Engineering, Inc., priority 2013, dated 2017).

Columns and labels:
Test in all cases: in vitro susceptibility, MIC by mini broth dilution
Format in all cases: cell-based
[1] = test system: Staphylococcus aureus CVCC26003; conditions: strain CVCC26003
Procedure, shortened: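 S. aureus CVCC26003 was revived and subcultured twice, 20 h each at 35° C, on solid medium, then diluted 1:200 in CAMHB liquid medium. Compounds received an 11-step two-fold DMSO dilution in parallel duplicate rows. MIC was read by mini broth dilution per NCCLS guidance.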

[2] = test system: Pasteurella multocida CVCC399; conditions: strain CVCC399
Procedure, shortened: (§1)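 Broth microdilution MIC, NCCLS method: 11-point two-fold DMSO compound series, duplicate rows, well 12 as control. Inoculum from 20 h, 35° C plate cultures, diluted 1:200 in broth.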

Haemophilus parasuis = test system: Haemophilus parasuis
Procedure, shortened: as §1

[3] = test system: Actinobacillus pleuropneumoniae CVCC262; conditions: strain CVCC262
Procedure, shortened: as §1

[4] = test system: Streptococcus equines CVCC556; conditions: strain CVCC556
Procedure, shortened: as §1

| SMILES | MIC values, Staphylococcus aureus CVCC26003 [1] | MIC values, Pasteurella multocida CVCC399 [2] | MIC values, Haemophilus parasuis (Haemophilus parasuis) | MIC values, Actinobacillus pleuropneumoniae CVCC262 [3] | MIC values, Streptococcus equines CVCC556 [4] |
| --- | --- | --- | --- | --- | --- |
| CCCN1C[C@H](C)[C@@H](O)[C@](C)(O)[C@@H](CC)OC(=O)[C@H](C)[C@@H](O[C@H]2C[C@@](C)(OC)[C@](O)(CNCCCOCC)[C@H](C)O2)[C@H](C)[C@@H](O[C@@H]2O[C@H](C)C[C@H](N(C)C)[C@H]2O)[C@](C)(O)C[C@H]1C [syzx-122] | 1 ug/mi | 1 ug/mi | 0.5 ug/mi | 1 ug/mi | 0.25 ug/mi |
| CCCN1C[C@H](C)[C@@H](O)[C@](C)(O)[C@@H](CC)OC(=O)[C@H](C)[C@@H](O[C@H]2C[C@@](C)(OC)[C@](O)(CNCCOC)[C@H](C)O2)[C@H](C)[C@@H](O[C@@H]2O[C@H](C)C[C@H](N(C)C)[C@H]2O)[C@](C)(O)C[C@H]1C [syzx-158] | 2 ug/mi | 2 ug/mi | 4 ug/mi | 4 ug/mi | 0.25 ug/mi |
| CC[C@H]1OC(=O)[C@H](C)[C@@H](O[C@H]2C[C@@](C)(OC)[C@](O)(CNN3CCOCC3)[C@H](C)O2)[C@H](C)[C@@H](O[C@@H]2O[C@H](C)C[C@H](N(C)C)[C@H]2O)[C@](C)(O)C[C@@H](C)NC[C@H](C)[C@@H](O)[C@]1(C)O [syzx-48, (2R,3S,4R,5S,8R,10R,11R,12S,13S,14R)-13-[(2,6-dideoxy-3-C-methyl-3-O-methyl-4-C-[(morpholin-4-yl-amino)-methyl]-α-L-ribopyranosyl)oxy]-2-ethyl-3,4,10-trihydroxy-3,5,8,10,12,14-hexamethyl-11-[[3,4,6-trideoxy-3-(dimethylamino)-β-D-xylo-hexopyranosy]oxy]-1-oxa-7-azacyclopentadecan-15-one] | 0.5 ug/mi | 1 ug/mi | ≦0.25 ug/mi | 16 ug/mi | 0.5 ug/mi |
| CCCC(C)NC[C@]1(O)[C@H](C)O[C@@H](O[C@H]2[C@H](C)[C@@H](O[C@@H]3O[C@H](C)C[C@H](N(C)C)[C@H]3O)[C@](C)(O)C[C@@H](C)N(CCC)C[C@H](C)[C@@H](O)[C@](C)(O)[C@@H](CC)OC(=O)[C@@H]2C)C[C@@]1(C)OC (stereo partly drawn) [syzx-163] | 0.25 ug/mi | 1 ug/mi | 0.25 ug/mi | 0.25 ug/mi | 0.25 ug/mi |
| CCCN1C[C@H](C)[C@@H](O)[C@](C)(O)[C@@H](CC)OC(=O)[C@H](C)[C@@H](O[C@H]2C[C@@](C)(OC)[C@](O)(CNC(C)C)[C@H](C)O2)[C@H](C)[C@@H](O[C@@H]2O[C@H](C)C[C@H](N(C)C)[C@H]2O)[C@](C)(O)C[C@H]1C [syzx-111] | 0.25 ug/mi | 0.5 ug/mi | 0.25 ug/mi | 0.25 ug/mi | 0.25 ug/mi |
| CC[C@H]1OC(=O)[C@H](C)[C@@H](O[C@H]2C[C@@](C)(OC)[C@](O)(CNC(=O)C(F)(F)F)[C@H](C)O2)[C@H](C)[C@@H](O[C@@H]2O[C@H](C)C[C@H](N(C)C)[C@H]2O)[C@](C)(O)C[C@@H](C)NC[C@H](C)[C@@H](O)[C@]1(C)O [syzx-37, (2R,3S,4R,5S,8R,10R,11R,12S,13S,14R)-13-[(2,6-dideoxy-3-C-methyl-3-O-methyl-4-C-[[2,2,2-trifluoroacetyl-amino]-methyl]-α-L-ribopyranosyl)oxy]-2-ethyl-3,4,10-trihydroxy-3,5,8,10,12,14-hexamethyl-11-[[3,4,6-trideoxy-3-(dimethylamino)-β-D-xylo-hexopyranosy]oxy]-1-oxa-7-azacyclopentadecan-15-one] | 0.5 ug/mi | 1 ug/mi | 0.5 ug/mi | 32 ug/mi | ≦0.25 ug/mi |
| CCCN1C[C@H](C)[C@@H](O)[C@](C)(O)[C@@H](CC)OC(=O)[C@H](C)[C@@H](O[C@H]2C[C@@](C)(OC)[C@](O)(CNc3cc(OC)cc(OC)c3)[C@H](C)O2)[C@H](C)[C@@H](O[C@@H]2O[C@H](C)C[C@H](N(C)C)[C@H]2O)[C@](C)(O)C[C@H]1C [syzx-176] | 0.5 ug/mi | 2 ug/mi | 0.5 ug/mi | 0.25 ug/mi | 0.25 ug/mi |
| CC[C@H]1OC(=O)[C@H](C)[C@@H](O[C@H]2C[C@@](C)(OC)[C@](O)(CNc3ccc(OC)cc3)[C@H](C)O2)[C@H](C)[C@@H](O[C@@H]2O[C@H](C)C[C@H](N(C)C)[C@H]2O)[C@](C)(O)C[C@@H](C)NC[C@H](C)[C@@H](O)[C@]1(C)O [syzx-83, (2R,3S,4R,5S,8R,10R,11R,12S,13S,14R)-13-[(2,6-dideoxy-3-C-methyl-3-O-methyl-4-C-[(p-methoxyphenyl-amino)-methyl]-α-L-ribopyranosyl)oxy]-2-ethyl-3,4,10-trihydroxy-3,5,8,10,12,14-hexamethyl-11-[[3,4,6-trideoxy-3-(dimethylamino)-β-D-xylo-hexopyranosy]oxy]-1-oxa-7-azacyclopentadecan-15-one] | 0.5 ug/mi | 0.25 ug/mi | 0.25 ug/mi | 2 ug/mi | 0.5 ug/mi |
| CCCN1C[C@H](C)[C@@H](O)[C@](C)(O)[C@@H](CC)OC(=O)[C@H](C)[C@@H](O[C@H]2C[C@@](C)(OC)[C@](O)(CNCC)[C@H](C)O2)[C@H](C)[C@@H](O[C@@H]2O[C@H](C)C[C@H](N(C)C)[C@H]2O)[C@](C)(O)C[C@H]1C [syzx-110] | 0.25 ug/mi | 0.5 ug/mi | 0.25 ug/mi | 0.25 ug/mi | 0.25 ug/mi |
| CC[C@H]1OC(=O)[C@H](C)[C@@H](O[C@H]2C[C@@](C)(OC)[C@](O)(CNCCCC(OC)OC)[C@H](C)O2)[C@H](C)[C@@H](O[C@@H]2O[C@H](C)C[C@H](N(C)C)[C@H]2O)[C@](C)(O)C[C@@H](C)NC[C@H](C)[C@@H](O)[C@]1(C)O [syzx-56, (2R,3S,4R,5S,8R,10R,11R,12S,13S,14R)-13-[(2,6-dideoxy-3-C-methyl-3-O-methyl-4-C-[(4-dimethoxy-butylamino)-methyl]-α-L-ribopyranosyl)oxy]-2-ethyl-3,4,10-trihydroxy-3,5,8,10,12,14-hexamethyl-11-[[3,4,6-trideoxy-3-(dimethylamino)-β-D-xylo-hexopyranosy]oxy]-1-oxa-7-azacyclopentadecan-15-one] | 0.5 ug/mi | 1 ug/mi | 0.5 ug/mi | 0.25 ug/mi | 0.25 ug/mi |
| CCCN1C[C@H](C)[C@@H](O)[C@](C)(O)[C@@H](CC)OC(=O)[C@H](C)[C@@H](O[C@H]2C[C@@](C)(OC)[C@](O)(CNCCOC)[C@H](C)O2)[C@H](C)[C@@H](O[C@@H]2O[C@H](C)C[C@H](N(C)C)[C@H]2O)[C@](C)(O)C[C@H]1C [syzx-125] | 1 ug/mi | 2 ug/mi | 0.5 ug/mi | 0.5 ug/mi | 0.25 ug/mi |
| CCCN1CC(C)C(O)C(C)(O)C(CC)OC(=O)C(C)C(OC2CC(C)(OC)C(O)(CNNc3ccccc3)C(C)O2)C(C)C(OC2OC(C)CC(N(C)C)C2O)C(C)(O)CC1C (stereo not drawn) [syzx-173] | 2 ug/mi | 4 ug/mi | 1 ug/mi | 1 ug/mi | 0.25 ug/mi |
